# What was measured:
# L6 myocytes = experiment: 2-deoxyglucose uptake in L6 myocytes; type: cell-based; conditions: 100 μM, compared to vehicle treated cells
# Procedure: FIG. 11, related to FIG. 5. Hyperinsulinemic/euglycemic clamp studies in bone marrow transplanted animals and muscle expression of GPR120. For bone marrow transplantation studies, WT or GPR120 KO mouse bone marrow (BM) was injected into irradiated WT C57B1/6 animals after 8 weeks for BM reconstitution, GPR120 was >90% reduced in circulating monocytes. Animals were then kept on either chow or switched to 60% HFD for weeks (±supplemention with ω-3 FAs for 5 weeks). (A) BMT GPR120 KO animals on chow are insulin resistant compared to WT controls. This effect is mediated by decreased GIR and a greater suppression of HGP in WT animals compared to KOs (n=5 for WT and n=6 per KO group). (B) BMT GPR120 KO animals on HFD supplemented with […] FAs (+ω3) are insulin resistant compared to WT controls. This effect is shown by decreased GIR, decreased IS-GDR, and a greater suppression of HGP in WT animals compared to KOs. (C) GPR120 expression levels in various tissues. RPS3 was the internal control for normalization. GPR120 is not expressed in soleus, or EDL muscle. […] Data are expressed as mean±SEM. *, p<0.05 compared to WT in (A) and (B).
# HA-GLUT4-eGFP expression vector were electroporated into day 8 post differentiated 3T3-L1 adipocytes for monitoring of GLUT4 translocation as previously described (Yoshizaki et al., 2007). […] Glucose uptake was measured as previously described (Imamura et al., 1999).
# [1] = tested on: IPMacs from GPR120 KO mice; experiment: In vitro transwell chemotaxis assay, GPR120 KO IPMacs; type: cell-based, mouse; conditions: pretreatment before exposure to conditioned media
# Procedure: (§1) It seemed possible that the reduction in ATM content in WT animals on the ω-3 FA diet reflected decreased chemotaxis of macrophages. To test this hypothesis, we measured the migratory capacity of IPMacs from WT and GPR120 KO mice using an in vitro transwell chemotaxis assay. […] Similar experiments were performed using the specific chemokine, monocyte chemotactic protein-1 (MCP-1) as a chemoattractant, rather than CM, and these experiments yielded identical results (FIG. 6D).
# (§2) In vitro chemotaxis assay was performed as previously described (Patsouris et al., 2009). Briefly, mature 3T3-L1 adipocytes, more than 99% of cells showing large lipids droplets (12 days after differentiation protocol initiation), were used for preparation of conditioned media. Treatment with the 100 μM DHA for 6 hr was performed in serum-free DMEM cultured IPMacs. For the migration per se, 100,000 IPMacs from WT or GPR120 KO mice were used per condition. The IPMacs were placed in the upper chamber of an 8 μm polycarbonate filter (24-transwell format; Corning, Lowell, Mass.), whereas adipocyte conditioned medium or MCP-1 treatment was placed in the lower chamber. After 3 hr of migration, cells were fixed in formalin and stained with 4′,6-diamidino-2-phenylindole and observed.
# WT mice on 60% HFD = experiment: Hyperinsulinemic/euglycemic clamp in HFD-fed WT mice; type: in vivo, mouse; conditions: gavage 300 μl EPAX 1050TG, clamp 4 hr after gavage, vs saline
# RAW 264.7 cells [2] = experiment: LPS-induced inflammatory signaling and cytokine secretion in RAW 264.7 cells; type: cell-based, mouse; conditions: for LPS-induced phosphorylation of JNK and IKKβ, IκB degradation, cytokine secretion and inflammatory gene expression level: pretreated 1 hr
# Description: FIG. 1. Expression level of GPR120 and GPR120-mediated anti-inflammatory response in RAW 264.7 cells. (A) The mRNA expression pattern of various lipid sensing GPCRs is shown in adipose tissue, (B) CD11c+ bone marrow-derived dendritic cells (BMDCs), bone marrow-derived macrophages (BMDMs), IPMacs, 3T3-L1 preadipocytes, differentiated 3T3-L1 adipocytes, RAW 264.7 cells and L6 myocytes. Ribosomal protein S3 (RPS3) was used as internal control. (C) Expression of GPR120 in SVF, adipocytes and hepatic Kupffer cells from chow (NC)- or HFD-fed mice was examined by q-PCR. Data are expressed as the mean±SEM of at least three independent experiments in triplicate. *, p<0.05 versus NC. (D) RAW 264.7 cells, transfected with scrambled (Scr) or GPR120 #2 siRNA (GPR120 KD), were treated with 100 μM of GW9508 for 1 hr prior to LPS (100 ng/ml) treatment for 10 min and then subjected to western blotting. […] (E) Cytokine secretion level was measured in RAW 264.7 cells by ELISA. Data are expressed as the mean±SEM of three independent experiments. *, p<0.05 versus LPS treatment in scrambled siRNA transfected cells. See also FIGS. 8 and 9.
# Proteins from tissues or cell lysates were extracted with radioimmune precipitation buffer in the presence of phosphatase inhibitors and protease inhibitors (Roche Applied Science). […] of proteins/lane were separated on a 10% polyacrylamide, precast SDS gel (Bio-Rad) followed by transfer on polyvinylidene difluoride membrane (Immobilon, Millipore), and western blotting was performed as described (Nguyen et al., 2005) with indicated antibodies. For immunoprecipitations, lysates were incubated with 1 μg of anti-β-arrestin2, TAK1 antibody (Cell signaling), or GFP antibody (Santa Cruz Biotechnology) overnight at 4° C. and immune complexes precipitated with Protein A/G-conjugated beads (Invitrogen). Beads were washed with PBS and resuspended in sample buffer. Lysates and immune complexes were separated by SDS-PAGE, subjected to western blotting.
# TNF-α and IL-6 were directly quantified from RAW 264.7 cells with or without GPR120 knockdown, or IPMacs culture medium. Cells were treated with 100 μM GW9508 or DHA for 1 hr prior to treat 100 ng/ml LPS for 6 hr and then collect medium from the cells and subjected to ELISA according to the manufacturer's instructions (BIOSOURCE). For GLP-1 measurement, mouse blood was collected 1 hr after indicated diet feeding. Adequate inhibitors (protease inhibitors and Diprotin A as DPP IV inhibitor) were used while blood was collecting and then subjected to ELISA to the manufacturer's instructions (ALPCO, Salem, N.H.).
# 3T3-L1 adipocytes [3] = experiment: GLUT4 translocation and 2-deoxyglucose uptake in 3T3-L1 adipocytes; type: cell-based; conditions: for glucose transport: pretreated 30 min
# Procedure: FIG. 4. GPR120 activation enhances GLUT4 translocation and glucose uptake. (A) 3T3-L1 adipocytes were transfected with a dually tagged HA-GLUT4-GFP construct. Total GLUT4 expression was determined by GFP fluorescence, and GLUT4 translocation to the cell surface after 100 ng/ml insulin or 100 μM DHA stimulation for 30 min was determined by indirect immunofluorescence of the HA-conjugated with Alexa 594 in fixed cells. Translocation following insulin stimulation was expressed as a percentage of the maximum response. Bar graph represents the mean±SEM data from four independent experiments. *, p<0.05 vs. vehicle treatment. (B) Glucose uptake was measured in WT and GPR120 KO mouse primary adipose tissue and in (C-F) 3T3-L1 adipocytes±siRNA with the indicated treatment. […] Data are expressed as mean±SEM of three independent experiments in triplicate. *, p<0.05 vs. basal activity. The indicated siRNA knockdown efficiency was validated by western blotting. See also FIG. 10.
# HA-GLUT4-eGFP expression vector were electroporated into day 8 post differentiated 3T3-L1 adipocytes for monitoring of GLUT4 translocation as previously described (Yoshizaki et al., 2007). For 2-DOG assay, 3T3-L1 adipocytes were pretreated for 30 min with the indicated drug; and stimulated with 3 ng/ml of insulin for 30 min at 37° C. L6 myocytes were pretreated for 30 min with 100 μM DHA and then stimulated with 100 ng/ml of insulin for 30 min. Glucose uptake was measured as previously described (Imamura et al., 1999).
# 3T3-L1 adipocytes [4] = experiment: Akt and IRS-1 phosphorylation in 3T3-L1 adipocytes (western blotting); type: cell-based
# Procedure: FIG. 10, related to FIG. 4. DHA activates Akt phosphorylation in a GPR120-dependent manner. (A) Differentiated 3T3-L1 adipocytes were transfected with scrambled or GPR120 siRNA and then 48 hr after siRNA transfection, cells were treated with 100 μM of DHA 30 min prior to insulin (3 ng/ml) treatment for 7 min followed by western blotting with phosphorylated Akt (S473) antibody. […] Data are expressed as the mean±SEM of three independent experiments. *, p<0.05 versus basal. (B) Cells were treated with the PI3K inhibitor LY294002 (50 μM) for 30 min before DHA (100 μM) or insulin (3 ng/ml) treatment. (C) Phosphorylation of IRS-1 was detected after DHA or insulin treatment of 3T3-L1 adipocytes. (D) Schematic diagram of GPR120-mediated Akt activation in 3T3-L1 adipocytes.
# (§3) Proteins from tissues or cell lysates were extracted with radioimmune precipitation buffer in the presence of phosphatase inhibitors and protease inhibitors (Roche Applied Science). […] of proteins/lane were separated on a 10% polyacrylamide, precast SDS gel (Bio-Rad) followed by transfer on polyvinylidene difluoride membrane (Immobilon, Millipore), and western blotting was performed as described (Nguyen et al., 2005) with indicated antibodies. […]
# IPMacs from WT mice = experiment: In vitro transwell chemotaxis assay, WT IPMacs; type: cell-based, mouse; conditions: pretreatment 3 hr before exposure to 3T3-L1 adipocyte conditioned media
# Procedure: as §1
# as §2, with “Treatment with the 100 μM DHA for 6 hr was performed in serum-free DMEM cultured IPMacs.” left out
# RAW 264.7 cells [5] = experiment: ERK1/2 phosphorylation in RAW 264.7 cells; type: cell-based, mouse; conditions: 100 μM, 5 min
# Procedure: FIG. 9, related to FIGS. 2 and 3. DHA-stimulated GPR120 inhibits TNF-α, TLR2 and TLR3-induced inflammation via a β-arrestin2 dependent mechanism. (A) ERK1/2 phosphorylation stimulated by GPR120 activation in RAW 264.7 cells transfected with scrambled or GPR120 siRNA. Cells were treated with 100 μM of DHA, α-linolenic acid or palmitic acid for 5 min. […] Data are expressed as the mean±SEM of three independent experiments. *, p<0.05 versus scrambled siRNA transfected cells. (B) Differentiated 3T3-L1 adipocytes were transfected with scrambled or GPR120 siRNA (GPR120 KD) and then 48 hr after siRNA transfection, cells were treated with 100 μM of DHA or GW9508 for 1 hr prior to TNF-α (10 ng/ml) treatment for 7 min prior to harvesting and then subjected to western blotting with the indicated antibodies. (C) RAW 264.7 cells, transfected with scrambled or GPR120 siRNA (GPR120 KD), were treated with 100 μM of DHA for 1 hr prior to 10 min TLR2 ligand, Pam3CSK4 (50 ng/ml), or TLR3 ligand, poly(I:C) (1 μg/ml), treatment and then subjected to western blotting. (D) To characterize the interaction site between β-arrestin2 and GPR120 or TAB1, HA-tagged GPR120 and FLAG-tagged serial C-terminal deletion mutants of β-arrestin2 (full, 1-300, 1-253, 1-176, and 1-163) or an N-terminal deletion mutant (80-410) were cotransfected in 293 cells. For immunoprecipitation of FLAG-βarr2 and HA-GPR120, cells were treated with DHA for 30 min, while DHA was used for 1 hr to detect endogenous TAB1 and FLAG-βarr2 interactions.
# as §3
# [6] = 100 μM 1 hr prior to LPS 100 ng/ml 10 min
structure (smiles),measurement,setting,value
CC/C=C\C/C=C\C/C=C\C/C=C\C/C=C\C/C=C\CCC(=O)O [DHA],glucose uptake,L6 myocytes,not altered
same,effect on chemotactic capacity,[1],no significant effect
same,whole body glucose homeostasis after acute treatment,WT mice on 60% HFD,no effect
same,LPS-induced TAK1 and MKK4 phosphorylation,RAW 264.7 cells [2]; RAW 264.7 cells,abrogated
same,"LPS-induced phosphorylation of JNK and IKKβ, IκB degradation, cytokine secretion and inflammatory gene expression level",RAW 264.7 cells [2]; RAW 264.7 cells,strongly inhibited
same,GLUT4 translocation to the cell surface,"3T3-L1 adipocytes [3]; 100 μM, 30 min",increased
same,effect on glucose uptake relative to the effect of insulin,3T3-L1 adipocytes [3]; 3T3-L1 adipocytes,30-50%
same,glucose transport,3T3-L1 adipocytes [3],increase
same,IRS-1 phosphorylation,3T3-L1 adipocytes [4],did not stimulate
same,phosphorylation of Akt,3T3-L1 adipocytes [4]; 100 μM,modest effect
same,inhibition of chemotactic capacity,IPMacs from WT mice,80%
same,ERK phosphorylation,RAW 264.7 cells [5],activated
CC/C=C\C/C=C\C/C=C\CCCCCCCC(=O)O [α-linolenic acid],ERK phosphorylation,RAW 264.7 cells [5],activated
O=C(O)CCc1ccc(NCc2cccc(Oc3ccccc3)c2)cc1 [GW9508],IκB degradation,RAW 264.7 cells [2]; [6],prevented
same,LPS stimulated phosphorylation of IKKβ and JNK,RAW 264.7 cells [2]; [6],inhibited
same,TNF-α and IL-6 secretion,"RAW 264.7 cells [2]; 100 μM 1 hr prior to LPS 100 ng/ml 6 hr, ELISA",inhibited
same,"LPS-induced phosphorylation of JNK and IKKβ, IκB degradation, cytokine secretion and inflammatory gene expression level",RAW 264.7 cells [2]; RAW 264.7 cells,strongly inhibited
same,glucose transport,3T3-L1 adipocytes [3],stimulatory effect
CCCCCCCCCCCCCCCC(=O)O [palmitic acid],ERK phosphorylation,RAW 264.7 cells [5],activated
